According to BindingDB's records for doi:10.1021/jm00069a017 (University of Minnesota, 1993):

Key:
[1] = Selective binding affinity against Opioid receptor delta 2, using [3H]DSLET as radioligand
[2] = Selective binding affinity against Opioid receptor delta 1, using [3H]DPDPE as radioligand

CN1CC[C@]23c4c5ccc(O)c4O[C@H]2C(=O)C2(Cc4ccccc4C2)C[C@@]3(O)[C@H]1C5 [Spiroindanyloxymorphone]
Ki [1]: 3.3 nM
Ki [2]: 1.4 nM
